What was measured:
B. subtilis 168 [1] = experiment: fitness (endpoint OD595 vs no drug) (fraction); higher = more growth
Summary of the method: (§1)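 Cultures at OD595 0.01 were dispensed into 384-well plates in TSB, LB Lennox or CY and incubated at 37 °C. Every 30 min for 14 h, OD595 was read and corrected by the first reading. Fitness is the optical density at entry into stationary phase relative to the robust mean of no-drug control wells, capped at 1.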

S. aureus DSM 20231 [2] = experiment: as above
Summary of the method: as §1

S. aureus Newman [3] = experiment: as above
Summary of the method: as §1

S. pneumoniae D39V [4] = experiment: as above
Summary of the method: as §1

B. subtilis 168 [5] = experiment: Bliss interaction score (quartile over a dose matrix) (fitness difference); higher = more antagonism (negative = synergy)
Summary of the method: (§2)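 Values were capped at 1 after dividing OD595 at stationary-phase entry by the plate's robust no-drug mean. This ratio is fitness, and single-drug fitness was inferred from the combination data. The Bliss score is observed minus product-expected fitness, given as quartiles over technical, biological and donor/recipient replicates.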

S. aureus DSM 20231 [6] = experiment: as above
Summary of the method: as §2

S. aureus Newman [7] = experiment: as above
Summary of the method: as §2

S. pneumoniae D39V [8] = experiment: as above
Summary of the method: as §2
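For Bliss interaction score (quartile over a dose matrix) in this document: first quartile when negative (synergy) and third quartile when positive (antagonism).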

CCC[C@@H]1C[C@@H](C(=O)N[C@@H]([C@H]2O[C@H](SC)[C@H](O)[C@@H](O)[C@H]2O)[C@H](C)Cl)N(C)C1 [Clindamycin] + CN1C2=CC=CC=C2N=C3C1=CC=CC3=O [Pyocyanin]
fitness, one replicate
Settings	first compound 0.0039 µg/mL	first compound 0.0078 µg/mL	first compound 0.015 µg/mL	first compound 0.0156 µg/mL	first compound 0.03 µg/mL	first compound 0.06 µg/mL
B. subtilis 168 [1], partner 1.25 µg/mL	0.892	0.424	–	0.863	–	–
B. subtilis 168 [1], partner 2.5 µg/mL	0.922	0.451	–	0.802	–	–
B. subtilis 168 [1], partner 5 µg/mL	0.821	0.495	–	0.725	–	–
S. pneumoniae D39V [4], partner 0.325 µg/mL	–	–	0.89	–	0.873	0.554
S. pneumoniae D39V [4], partner 0.65 µg/mL	–	–	0.963	–	0.881	0.689

Settings	fitness
B. subtilis 168 [1], first compound 0.0625 µg/mL, partner 1.25 µg/mL	0.562
B. subtilis 168 [1], first compound 0.0625 µg/mL, partner 2.5 µg/mL	0.576
B. subtilis 168 [1], first compound 0.0625 µg/mL, partner 5 µg/mL	0.517
B. subtilis 168 [1], first compound 0.125 µg/mL, partner 1.25 µg/mL	0.388
B. subtilis 168 [1], first compound 0.125 µg/mL, partner 2.5 µg/mL	0.389
B. subtilis 168 [1], first compound 0.125 µg/mL, partner 5 µg/mL	0.358
B. subtilis 168 [1], first compound 0.25 µg/mL, partner 1.25 µg/mL	0.34
B. subtilis 168 [1], first compound 0.25 µg/mL, partner 2.5 µg/mL	0.319
B. subtilis 168 [1], first compound 0.25 µg/mL, partner 5 µg/mL	0.314
S. aureus DSM 20231 [2], first compound 0.0625 µg/mL, partner 5 µg/mL	0.0689
S. aureus DSM 20231 [2], first compound 0.125 µg/mL, partner 1.25 µg/mL	0.0414
S. aureus DSM 20231 [2], first compound 0.125 µg/mL, partner 2.5 µg/mL	0.0387
S. aureus DSM 20231 [2], first compound 0.125 µg/mL, partner 5 µg/mL	0.0705
S. aureus Newman [3], first compound 0.0312 µg/mL, partner 1.25 µg/mL	0.602
S. aureus Newman [3], first compound 0.0312 µg/mL, partner 2.5 µg/mL	0.424
S. aureus Newman [3], first compound 0.0312 µg/mL, partner 5 µg/mL	0.155
S. aureus Newman [3], first compound 0.0625 µg/mL, partner 2.5 µg/mL	0.179
S. aureus Newman [3], first compound 0.0625 µg/mL, partner 5 µg/mL	0.0835
S. aureus Newman [3], first compound 0.125 µg/mL, partner 1.25 µg/mL	0.0658
S. aureus Newman [3], first compound 0.125 µg/mL, partner 2.5 µg/mL	0.0591
S. aureus Newman [3], first compound 0.125 µg/mL, partner 5 µg/mL	0.0732
S. pneumoniae D39V [4], first compound 0.0125 µg/mL, partner 0.325 µg/mL	0.775
S. pneumoniae D39V [4], first compound 0.0125 µg/mL, partner 0.65 µg/mL	0.742
S. pneumoniae D39V [4], first compound 0.0125 µg/mL, partner 1.3 µg/mL	0.564
S. pneumoniae D39V [4], first compound 0.025 µg/mL, partner 0.325 µg/mL	0.49
S. pneumoniae D39V [4], first compound 0.025 µg/mL, partner 0.65 µg/mL	0.458
S. pneumoniae D39V [4], first compound 0.025 µg/mL, partner 1.3 µg/mL	0.333
S. pneumoniae D39V [4], first compound 0.05 µg/mL, partner 0.325 µg/mL	0.192
S. pneumoniae D39V [4], first compound 0.05 µg/mL, partner 0.65 µg/mL	0.147
S. pneumoniae D39V [4], first compound 0.05 µg/mL, partner 1.3 µg/mL	0.0814

Settings	Bliss interaction score
B. subtilis 168 [5]	0.0629
S. aureus DSM 20231 [6]	0.025
S. aureus Newman [7]	-0.141
S. pneumoniae D39V [8]	-0.0665

CCC[C@@H]1C[C@@H](C(=O)N[C@@H]([C@H]2O[C@H](SC)[C@H](O)[C@@H](O)[C@H]2O)[C@H](C)Cl)N(C)C1 [Clindamycin] + CN[C@H](CC(C)C)C(=O)N[C@H]1C(=O)N[C@@H](CC(N)=O)C(=O)N[C@H]2C(=O)N[C@H]3C(=O)N[C@H](C(=O)N[C@H](C(=O)O)c4cc(O)cc(O)c4-c4cc3ccc4O)[C@H](O)c3ccc(c(Cl)c3)Oc3cc2cc(c3O[C@@H]2O[C@H](CO)[C@@H](O)[C@H](O)[C@H]2O[C@H]2C[C@](C)(N)[C@H](O)[C@H](C)O2)Oc2ccc(cc2Cl)[C@H]1O [Vancomycin]
Settings	fitness
S. aureus DSM 20231 [2], first compound 0.125 µg/mL, partner 0.1875 µg/mL	0.0642
S. aureus DSM 20231 [2], first compound 0.125 µg/mL, partner 0.375 µg/mL	0.0657
S. aureus DSM 20231 [2], first compound 0.125 µg/mL, partner 0.75 µg/mL	0.0731
S. aureus Newman [3], first compound 0.0312 µg/mL, partner 0.1875 µg/mL	0.764
S. aureus Newman [3], first compound 0.0312 µg/mL, partner 0.375 µg/mL	0.761
S. aureus Newman [3], first compound 0.0312 µg/mL, partner 0.75 µg/mL	0.762
S. pneumoniae D39V [4], first compound 0.0125 µg/mL, partner 0.125 µg/mL	0.782
S. pneumoniae D39V [4], first compound 0.0125 µg/mL, partner 0.25 µg/mL	0.702
S. pneumoniae D39V [4], first compound 0.0125 µg/mL, partner 0.5 µg/mL	0.0792
S. pneumoniae D39V [4], first compound 0.015 µg/mL, partner 0.03125 µg/mL	0.89
S. pneumoniae D39V [4], first compound 0.015 µg/mL, partner 0.0625 µg/mL	0.844
S. pneumoniae D39V [4], first compound 0.015 µg/mL, partner 0.125 µg/mL	0.63
S. pneumoniae D39V [4], first compound 0.025 µg/mL, partner 0.125 µg/mL	0.544
S. pneumoniae D39V [4], first compound 0.025 µg/mL, partner 0.25 µg/mL	0.47
S. pneumoniae D39V [4], first compound 0.025 µg/mL, partner 0.5 µg/mL	0.0715
S. pneumoniae D39V [4], first compound 0.03 µg/mL, partner 0.03125 µg/mL	0.738
S. pneumoniae D39V [4], first compound 0.03 µg/mL, partner 0.0625 µg/mL	0.7
S. pneumoniae D39V [4], first compound 0.03 µg/mL, partner 0.125 µg/mL	0.526
S. pneumoniae D39V [4], first compound 0.05 µg/mL, partner 0.125 µg/mL	0.296
S. pneumoniae D39V [4], first compound 0.05 µg/mL, partner 0.25 µg/mL	0.237
S. pneumoniae D39V [4], first compound 0.05 µg/mL, partner 0.5 µg/mL	0.0635
S. pneumoniae D39V [4], first compound 0.06 µg/mL, partner 0.03125 µg/mL	0.501
S. pneumoniae D39V [4], first compound 0.06 µg/mL, partner 0.0625 µg/mL	0.47
S. pneumoniae D39V [4], first compound 0.06 µg/mL, partner 0.125 µg/mL	0.327

Settings	Bliss interaction score
B. subtilis 168 [5]	0.0503
S. aureus DSM 20231 [6]	0.0292
S. aureus Newman [7]	0.135
S. pneumoniae D39V [8]	0.111

CCC[C@@H]1C[C@@H](C(=O)N[C@@H]([C@H]2O[C@H](SC)[C@H](O)[C@@H](O)[C@H]2O)[C@H](C)Cl)N(C)C1 [Clindamycin] + Cn1nnc(-c2ccc(-c3ccc(N4C[C@H](CO)OC4=O)cc3F)cn2)n1 [Tedizolid]
fitness
Settings	partner 0.03125 µg/mL	partner 0.0625 µg/mL	partner 0.125 µg/mL	partner 0.25 µg/mL	partner 0.5 µg/mL
S. aureus DSM 20231 [2], first compound 0.0312 µg/mL	–	–	–	0.314	–
S. aureus DSM 20231 [2], first compound 0.0625 µg/mL	–	0.0876	0.0753	0.0709	–
S. aureus DSM 20231 [2], first compound 0.125 µg/mL	–	0.0391	0.0406	0.0164	–
S. aureus Newman [3], first compound 0.125 µg/mL	–	0.0736	0.0453	0.0444	–
S. pneumoniae D39V [4], first compound 0.0125 µg/mL	–	–	0.551	0.434	0.201
S. pneumoniae D39V [4], first compound 0.015 µg/mL	0.901	0.918	0.778	–	–
S. pneumoniae D39V [4], first compound 0.025 µg/mL	–	–	0.375	0.33	0.149
S. pneumoniae D39V [4], first compound 0.03 µg/mL	0.781	0.814	0.721	–	–
S. pneumoniae D39V [4], first compound 0.05 µg/mL	–	–	0.224	0.166	0.097
S. pneumoniae D39V [4], first compound 0.06 µg/mL	0.641	0.646	0.605	–	–

Settings	Bliss interaction score
B. subtilis 168 [5]	0.134
S. aureus DSM 20231 [6]	-0.024
S. aureus Newman [7]	-0.0925
S. pneumoniae D39V [8]	0.115

O=C(O[C@@H]1Cc2c(O)cc(O)cc2O[C@@H]1c1cc(O)c(O)c(O)c1)c1cc(O)c(O)c(O)c1 [EGCG] + CN[C@H](CC(C)C)C(=O)N[C@H]1C(=O)N[C@@H](CC(N)=O)C(=O)N[C@H]2C(=O)N[C@H]3C(=O)N[C@H](C(=O)N[C@H](C(=O)O)c4cc(O)cc(O)c4-c4cc3ccc4O)[C@H](O)c3ccc(c(Cl)c3)Oc3cc2cc(c3O[C@@H]2O[C@H](CO)[C@@H](O)[C@H](O)[C@H]2O[C@H]2C[C@](C)(N)[C@H](O)[C@H](C)O2)Oc2ccc(cc2Cl)[C@H]1O [Vancomycin]
fitness
Settings	first compound 12.5 µg/mL	first compound 25 µg/mL	first compound 50 µg/mL
S. aureus DSM 20231 [2], partner 0.1875 µg/mL	0.846	0.747	0.753
S. aureus DSM 20231 [2], partner 0.375 µg/mL	0.842	0.781	0.836
S. aureus DSM 20231 [2], partner 0.75 µg/mL	0.865	0.885	0.738
S. aureus Newman [3], partner 0.1875 µg/mL	0.754	0.782	–
S. aureus Newman [3], partner 0.375 µg/mL	0.757	0.766	0.846
S. aureus Newman [3], partner 0.75 µg/mL	0.789	0.776	0.778
S. pneumoniae D39V [4], partner 0.03125 µg/mL	0.907	0.913	0.931
S. pneumoniae D39V [4], partner 0.0625 µg/mL	0.887	0.901	0.959
S. pneumoniae D39V [4], partner 0.125 µg/mL	0.889	0.89	0.948
S. pneumoniae D39V [4], partner 0.25 µg/mL	0.317	–	0.397
S. pneumoniae D39V [4], partner 0.5 µg/mL	0.0543	0.0794	0.143

Settings	Bliss interaction score
B. subtilis 168 [5]	0.0425
S. aureus DSM 20231 [6]	0.0881
S. aureus Newman [7]	-0.0625
S. pneumoniae D39V [8]	0.0478

— the supplement of paper PMC10627819
